Laboratory results: ChEMBL document CHEMBL3046624, “Synthesis, single crystal X-ray studies and antimicrobial activities of novel Indole barbiturates” (Med Chem Res, 2012)
Calls of active or inactive are those of the source. The calls are words filed in the database; no cut-off is given here.

Key:
Assay type in all cases: functional, organism-based
Staphylococcus aureus [1] = test: Growth inhibition of Staphylococcus aureus at 200 ug/ml by cup-plate method
Pseudomonas aeruginosa [2] = test: Growth inhibition of Pseudomonas aeruginosa at 100 ug/ml by cup-plate method
Saccharomyces cerevisiae [3] = test: Growth inhibition of Saccharomyces cerevisiae at 300 ug/ml by cup-plate method
Bacillus subtilis [4] = test: Growth inhibition of Bacillus subtilis at 100 ug/ml by cup plate method
Proteus vulgaris [5] = test: Growth inhibition of Proteus vulgaris at 300 ug/ml by cup-plate method
Bacillus subtilis [6] = test: Growth inhibition of Bacillus subtilis at 300 ug/ml by cup plate method
Saccharomyces cerevisiae [7] = test: Growth inhibition of Saccharomyces cerevisiae at 200 ug/ml by cup-plate method
Candida albicans [8] = test: Growth inhibition of Candida albicans at 300 ug/ml by cup-plate method
Saccharomyces cerevisiae [9] = test: Growth inhibition of Saccharomyces cerevisiae at 100 ug/ml by cup-plate method
Proteus vulgaris [10] = test: Growth inhibition of Proteus vulgaris at 100 ug/ml by cup-plate method
Escherichia coli [11] = test: Growth inhibition of Escherichia coli at 100 ug/ml by cup-plate method
Staphylococcus aureus [12] = test: Growth inhibition of Staphylococcus aureus at 100 ug/ml by cup-plate method
Escherichia coli [13] = test: Growth inhibition of Escherichia coli at 200 ug/ml by cup-plate method
Candida albicans [14] = test: Growth inhibition of Candida albicans at 200 ug/ml by cup-plate method
Candida albicans [15] = test: Growth inhibition of Candida albicans at 100 ug/ml by cup-plate method
Proteus vulgaris [16] = test: Growth inhibition of Proteus vulgaris at 200 ug/ml by cup-plate method
Staphylococcus aureus [17] = test: Growth inhibition of Staphylococcus aureus at 300 ug/ml by cup-plate method
Bacillus subtilis [18] = test: Growth inhibition of Bacillus subtilis at 200 ug/ml by cup plate method
Escherichia coli [19] = test: Growth inhibition of Escherichia coli at 300 ug/ml by cup-plate method
Pseudomonas aeruginosa [20] = test: Growth inhibition of Pseudomonas aeruginosa at 300 ug/ml by cup-plate method
Pseudomonas aeruginosa [21] = test: Growth inhibition of Pseudomonas aeruginosa at 200 ug/ml by cup-plate method

SMILES: C=CCn1c(-c2ccccc2)c(C=C2C(=O)NC(=O)NC2=O)c2ccccc21
- growth inhibition (GI) (Staphylococcus aureus [1]): Active
- growth inhibition (GI) (Pseudomonas aeruginosa [2]): Active
- growth inhibition (GI) (Saccharomyces cerevisiae [3]): Active
- growth inhibition (GI) (Bacillus subtilis [4]): Active
- growth inhibition (GI) (Proteus vulgaris [5]): Active
- growth inhibition (GI) (Bacillus subtilis [6]): Active
- growth inhibition (GI) (Saccharomyces cerevisiae [7]): Active
- growth inhibition (GI) (Candida albicans [8]): Active
- growth inhibition (GI) (Saccharomyces cerevisiae [9]): Active
- growth inhibition (GI) (Proteus vulgaris [10]): Active
- growth inhibition (GI) (Escherichia coli [11]): Active
- growth inhibition (GI) (Staphylococcus aureus [12]): Active
- growth inhibition (GI) (Escherichia coli [13]): Active
- growth inhibition (GI) (Candida albicans [14]): Active
- growth inhibition (GI) (Candida albicans [15]): Active
- growth inhibition (GI) (Proteus vulgaris [16]): Active
- growth inhibition (GI) (Staphylococcus aureus [17]): Active
- growth inhibition (GI) (Bacillus subtilis [18]): Active
- growth inhibition (GI) (Escherichia coli [19]): Active
- growth inhibition (GI) (Pseudomonas aeruginosa [20]): Active
- growth inhibition (GI) (Pseudomonas aeruginosa [21]): Active

SMILES: CCCCn1c(-c2ccccc2)c(C=C2C(=O)NC(=O)NC2=O)c2ccccc21
- growth inhibition (GI) (Staphylococcus aureus [1]): Active
- growth inhibition (GI) (Pseudomonas aeruginosa [2]): inactive
- growth inhibition (GI) (Saccharomyces cerevisiae [3]): inactive
- growth inhibition (GI) (Bacillus subtilis [4]): Active
- growth inhibition (GI) (Proteus vulgaris [5]): Active
- growth inhibition (GI) (Bacillus subtilis [6]): Active
- growth inhibition (GI) (Saccharomyces cerevisiae [7]): inactive
- growth inhibition (GI) (Candida albicans [8]): Active
- growth inhibition (GI) (Saccharomyces cerevisiae [9]): inactive
- growth inhibition (GI) (Proteus vulgaris [10]): Active
- growth inhibition (GI) (Escherichia coli [11]): Active
- growth inhibition (GI) (Staphylococcus aureus [12]): Active
- growth inhibition (GI) (Escherichia coli [13]): Active
- growth inhibition (GI) (Candida albicans [14]): Active
- growth inhibition (GI) (Candida albicans [15]): Active
- growth inhibition (GI) (Proteus vulgaris [16]): Active
- growth inhibition (GI) (Staphylococcus aureus [17]): Active
- growth inhibition (GI) (Bacillus subtilis [18]): Active
- growth inhibition (GI) (Escherichia coli [19]): Active
- growth inhibition (GI) (Pseudomonas aeruginosa [20]): inactive
- growth inhibition (GI) (Pseudomonas aeruginosa [21]): inactive

SMILES: O=C1NC(=O)C(=Cc2c(-c3ccccc3)n(CC(=O)c3ccccc3)c3ccccc23)C(=O)N1
- growth inhibition (GI) (Staphylococcus aureus [1]): inactive
- growth inhibition (GI) (Pseudomonas aeruginosa [2]): Active
- growth inhibition (GI) (Saccharomyces cerevisiae [3]): Active
- growth inhibition (GI) (Bacillus subtilis [4]): inactive
- growth inhibition (GI) (Proteus vulgaris [5]): Active
- growth inhibition (GI) (Bacillus subtilis [6]): inactive
- growth inhibition (GI) (Saccharomyces cerevisiae [7]): Active
- growth inhibition (GI) (Candida albicans [8]): inactive
- growth inhibition (GI) (Saccharomyces cerevisiae [9]): Active
- growth inhibition (GI) (Proteus vulgaris [10]): Active
- growth inhibition (GI) (Escherichia coli [11]): inactive
- growth inhibition (GI) (Staphylococcus aureus [12]): inactive
- growth inhibition (GI) (Escherichia coli [13]): inactive
- growth inhibition (GI) (Candida albicans [14]): inactive
- growth inhibition (GI) (Candida albicans [15]): inactive
- growth inhibition (GI) (Proteus vulgaris [16]): inactive
- growth inhibition (GI) (Staphylococcus aureus [17]): inactive
- growth inhibition (GI) (Bacillus subtilis [18]): inactive
- growth inhibition (GI) (Escherichia coli [19]): inactive
- growth inhibition (GI) (Pseudomonas aeruginosa [20]): Active
- growth inhibition (GI) (Pseudomonas aeruginosa [21]): Active

SMILES: COc1ccc(C(=O)Cn2c(-c3ccccc3)c(C=C3C(=O)NC(=O)NC3=O)c3ccccc32)cc1
- growth inhibition (GI) (Staphylococcus aureus [1]): inactive
- growth inhibition (GI) (Pseudomonas aeruginosa [2]): Active
- growth inhibition (GI) (Saccharomyces cerevisiae [3]): Active
- growth inhibition (GI) (Bacillus subtilis [4]): inactive
- growth inhibition (GI) (Proteus vulgaris [5]): Active
- growth inhibition (GI) (Bacillus subtilis [6]): Active
- growth inhibition (GI) (Saccharomyces cerevisiae [7]): inactive
- growth inhibition (GI) (Candida albicans [8]): Active
- growth inhibition (GI) (Saccharomyces cerevisiae [9]): inactive
- growth inhibition (GI) (Proteus vulgaris [10]): Active
- growth inhibition (GI) (Escherichia coli [11]): inactive
- growth inhibition (GI) (Staphylococcus aureus [12]): inactive
- growth inhibition (GI) (Escherichia coli [13]): inactive
- growth inhibition (GI) (Candida albicans [14]): Active
- growth inhibition (GI) (Candida albicans [15]): Active
- growth inhibition (GI) (Proteus vulgaris [16]): Active
- growth inhibition (GI) (Staphylococcus aureus [17]): inactive
- growth inhibition (GI) (Bacillus subtilis [18]): inactive
- growth inhibition (GI) (Escherichia coli [19]): inactive
- growth inhibition (GI) (Pseudomonas aeruginosa [20]): Active
- growth inhibition (GI) (Pseudomonas aeruginosa [21]): Active

SMILES: CC(=O)N1CCN(c2ccc(OCC3COC(Cn4ccnc4)(c4ccc(Cl)cc4Cl)O3)cc2)CC1 (configuration not stated)
- growth inhibition (GI) (Saccharomyces cerevisiae [3]): Active
- growth inhibition (GI) (Saccharomyces cerevisiae [7]): Active
- growth inhibition (GI) (Candida albicans [8]): Active
- growth inhibition (GI) (Saccharomyces cerevisiae [9]): Active
- growth inhibition (GI) (Candida albicans [14]): Active
- growth inhibition (GI) (Candida albicans [15]): Active

SMILES: O=C1NC(=O)C(=Cc2c(-c3ccccc3)n(CC(=O)c3ccc(Br)cc3)c3ccccc23)C(=O)N1
- growth inhibition (GI) (Staphylococcus aureus [1]): Active
- growth inhibition (GI) (Pseudomonas aeruginosa [2]): Active
- growth inhibition (GI) (Saccharomyces cerevisiae [3]): Active
- growth inhibition (GI) (Bacillus subtilis [4]): Active
- growth inhibition (GI) (Proteus vulgaris [5]): Active
- growth inhibition (GI) (Bacillus subtilis [6]): Active
- growth inhibition (GI) (Saccharomyces cerevisiae [7]): Active
- growth inhibition (GI) (Candida albicans [8]): Active
- growth inhibition (GI) (Saccharomyces cerevisiae [9]): Active
- growth inhibition (GI) (Proteus vulgaris [10]): Active
- growth inhibition (GI) (Escherichia coli [11]): Active
- growth inhibition (GI) (Staphylococcus aureus [12]): Active
- growth inhibition (GI) (Escherichia coli [13]): Active
- growth inhibition (GI) (Candida albicans [14]): Active
- growth inhibition (GI) (Candida albicans [15]): Active
- growth inhibition (GI) (Proteus vulgaris [16]): Active
- growth inhibition (GI) (Staphylococcus aureus [17]): Active
- growth inhibition (GI) (Bacillus subtilis [18]): Active
- growth inhibition (GI) (Escherichia coli [19]): Active
- growth inhibition (GI) (Pseudomonas aeruginosa [20]): Active
- growth inhibition (GI) (Pseudomonas aeruginosa [21]): Active

SMILES: CC1(C)S[C@@H]2[C@H](NC(=O)[C@H](N)c3ccccc3)C(=O)N2[C@H]1C(=O)O
- growth inhibition (GI) (Staphylococcus aureus [1]): Active
- growth inhibition (GI) (Pseudomonas aeruginosa [2]): Active
- growth inhibition (GI) (Bacillus subtilis [4]): Active
- growth inhibition (GI) (Proteus vulgaris [5]): Active
- growth inhibition (GI) (Bacillus subtilis [6]): Active
- growth inhibition (GI) (Candida albicans [8]): inactive
- growth inhibition (GI) (Proteus vulgaris [10]): Active
- growth inhibition (GI) (Escherichia coli [11]): Active
- growth inhibition (GI) (Staphylococcus aureus [12]): Active
- growth inhibition (GI) (Escherichia coli [13]): Active
- growth inhibition (GI) (Candida albicans [14]): inactive
- growth inhibition (GI) (Candida albicans [15]): inactive
- growth inhibition (GI) (Proteus vulgaris [16]): Active
- growth inhibition (GI) (Staphylococcus aureus [17]): Active
- growth inhibition (GI) (Bacillus subtilis [18]): Active
- growth inhibition (GI) (Escherichia coli [19]): Active
- growth inhibition (GI) (Pseudomonas aeruginosa [20]): Active
- growth inhibition (GI) (Pseudomonas aeruginosa [21]): Active

SMILES: CCn1c(-c2ccccc2)c(C=C2C(=O)NC(=O)NC2=O)c2ccccc21
- growth inhibition (GI) (Staphylococcus aureus [1]): inactive
- growth inhibition (GI) (Pseudomonas aeruginosa [2]): Active
- growth inhibition (GI) (Saccharomyces cerevisiae [3]): Active
- growth inhibition (GI) (Bacillus subtilis [4]): inactive
- growth inhibition (GI) (Proteus vulgaris [5]): inactive
- growth inhibition (GI) (Bacillus subtilis [6]): Active
- growth inhibition (GI) (Saccharomyces cerevisiae [7]): Active
- growth inhibition (GI) (Candida albicans [8]): Active
- growth inhibition (GI) (Saccharomyces cerevisiae [9]): Active
- growth inhibition (GI) (Proteus vulgaris [10]): inactive
- growth inhibition (GI) (Escherichia coli [11]): inactive
- growth inhibition (GI) (Staphylococcus aureus [12]): inactive
- growth inhibition (GI) (Escherichia coli [13]): inactive
- growth inhibition (GI) (Candida albicans [14]): Active
- growth inhibition (GI) (Candida albicans [15]): Active
- growth inhibition (GI) (Proteus vulgaris [16]): inactive
- growth inhibition (GI) (Staphylococcus aureus [17]): inactive
- growth inhibition (GI) (Bacillus subtilis [18]): inactive
- growth inhibition (GI) (Escherichia coli [19]): inactive
- growth inhibition (GI) (Pseudomonas aeruginosa [20]): Active
- growth inhibition (GI) (Pseudomonas aeruginosa [21]): Active

SMILES: O=C1NC(=O)C(=Cc2c(-c3ccccc3)n(CC(=O)c3ccc(Cl)cc3)c3ccccc23)C(=O)N1
- growth inhibition (GI) (Staphylococcus aureus [1]): Active
- growth inhibition (GI) (Pseudomonas aeruginosa [2]): Active
- growth inhibition (GI) (Saccharomyces cerevisiae [3]): Active
- growth inhibition (GI) (Bacillus subtilis [4]): Active
- growth inhibition (GI) (Proteus vulgaris [5]): Active
- growth inhibition (GI) (Bacillus subtilis [6]): Active
- growth inhibition (GI) (Saccharomyces cerevisiae [7]): Active
- growth inhibition (GI) (Candida albicans [8]): Active
- growth inhibition (GI) (Saccharomyces cerevisiae [9]): Active
- growth inhibition (GI) (Proteus vulgaris [10]): Active
- growth inhibition (GI) (Escherichia coli [11]): Active
- growth inhibition (GI) (Staphylococcus aureus [12]): Active
- growth inhibition (GI) (Escherichia coli [13]): Active
- growth inhibition (GI) (Candida albicans [14]): Active
- growth inhibition (GI) (Candida albicans [15]): Active
- growth inhibition (GI) (Proteus vulgaris [16]): Active
- growth inhibition (GI) (Staphylococcus aureus [17]): Active
- growth inhibition (GI) (Bacillus subtilis [18]): Active
- growth inhibition (GI) (Escherichia coli [19]): Active
- growth inhibition (GI) (Pseudomonas aeruginosa [20]): Active
- growth inhibition (GI) (Pseudomonas aeruginosa [21]): Active

SMILES: O=C1NC(=O)C(=Cc2c(-c3ccccc3)n(CC(=O)c3ccc(-c4ccccc4)cc3)c3ccccc23)C(=O)N1
- growth inhibition (GI) (Staphylococcus aureus [1]): Active
- growth inhibition (GI) (Pseudomonas aeruginosa [2]): inactive
- growth inhibition (GI) (Saccharomyces cerevisiae [3]): Active
- growth inhibition (GI) (Bacillus subtilis [4]): Active
- growth inhibition (GI) (Proteus vulgaris [5]): Active
- growth inhibition (GI) (Bacillus subtilis [6]): Active
- growth inhibition (GI) (Saccharomyces cerevisiae [7]): Active
- growth inhibition (GI) (Candida albicans [8]): inactive
- growth inhibition (GI) (Saccharomyces cerevisiae [9]): Active
- growth inhibition (GI) (Proteus vulgaris [10]): inactive
- growth inhibition (GI) (Escherichia coli [11]): Active
- growth inhibition (GI) (Staphylococcus aureus [12]): Active
- growth inhibition (GI) (Escherichia coli [13]): Active
- growth inhibition (GI) (Candida albicans [14]): inactive
- growth inhibition (GI) (Candida albicans [15]): inactive
- growth inhibition (GI) (Proteus vulgaris [16]): Active
- growth inhibition (GI) (Staphylococcus aureus [17]): Active
- growth inhibition (GI) (Bacillus subtilis [18]): Active
- growth inhibition (GI) (Escherichia coli [19]): Active
- growth inhibition (GI) (Pseudomonas aeruginosa [20]): Active
- growth inhibition (GI) (Pseudomonas aeruginosa [21]): inactive
